Laboratory results taken from patent US10138233B2, “Imidazole compounds as modulators of FSHR and uses thereof” (Merck Patent GmbH, priority 2013, dated 2018).

Legend:
[1] = target: T1, FSHR (Homo sapiens, UniProt P23945); test: EC50 of cyclic AMP production in CHO FSHR cells + EC20 FSH (Assay A); format: cell-based; settings: CHO-FSHR-LUC cells, in presence of EC20 FSH, cAMP HTRF, 1 h 37° C.
T1 construct: expressed in transfected cells; host or cells: CHO cells, clone Cho-FSHR-LUC-1-1-43
T1 sequence (P23945 18-695): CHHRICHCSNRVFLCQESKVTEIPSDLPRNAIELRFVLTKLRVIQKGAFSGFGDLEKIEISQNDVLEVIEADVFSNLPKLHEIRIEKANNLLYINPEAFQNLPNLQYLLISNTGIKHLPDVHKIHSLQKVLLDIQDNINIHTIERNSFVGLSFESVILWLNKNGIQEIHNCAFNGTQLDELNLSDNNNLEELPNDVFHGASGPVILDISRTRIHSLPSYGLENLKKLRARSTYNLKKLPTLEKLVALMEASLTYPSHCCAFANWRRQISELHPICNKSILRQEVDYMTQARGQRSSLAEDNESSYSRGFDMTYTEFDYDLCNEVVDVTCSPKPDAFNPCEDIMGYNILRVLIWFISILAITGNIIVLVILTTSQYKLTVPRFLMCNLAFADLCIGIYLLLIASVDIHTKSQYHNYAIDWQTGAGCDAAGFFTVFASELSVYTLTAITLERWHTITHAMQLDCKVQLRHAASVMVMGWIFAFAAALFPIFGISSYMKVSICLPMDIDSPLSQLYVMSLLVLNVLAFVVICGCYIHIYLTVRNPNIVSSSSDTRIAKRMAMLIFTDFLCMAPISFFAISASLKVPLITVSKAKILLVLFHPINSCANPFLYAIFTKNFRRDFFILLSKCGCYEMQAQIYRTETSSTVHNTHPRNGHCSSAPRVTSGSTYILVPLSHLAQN

[2] = target: T2, follicle-stimulating hormone (FSH) receptor (Rattus norvegicus, UniProt P20395); test: Rat Granulosa EC50 FSH (Assay B); format: cell-based; settings: rat granulosa cells, per Yanofsky et al. 2006
T2 construct: Rat Granulosa EC50 FSH (Assay B); endogenous in cells; host or cells: rat granulosa cells
T2 sequence (P20395 18-692): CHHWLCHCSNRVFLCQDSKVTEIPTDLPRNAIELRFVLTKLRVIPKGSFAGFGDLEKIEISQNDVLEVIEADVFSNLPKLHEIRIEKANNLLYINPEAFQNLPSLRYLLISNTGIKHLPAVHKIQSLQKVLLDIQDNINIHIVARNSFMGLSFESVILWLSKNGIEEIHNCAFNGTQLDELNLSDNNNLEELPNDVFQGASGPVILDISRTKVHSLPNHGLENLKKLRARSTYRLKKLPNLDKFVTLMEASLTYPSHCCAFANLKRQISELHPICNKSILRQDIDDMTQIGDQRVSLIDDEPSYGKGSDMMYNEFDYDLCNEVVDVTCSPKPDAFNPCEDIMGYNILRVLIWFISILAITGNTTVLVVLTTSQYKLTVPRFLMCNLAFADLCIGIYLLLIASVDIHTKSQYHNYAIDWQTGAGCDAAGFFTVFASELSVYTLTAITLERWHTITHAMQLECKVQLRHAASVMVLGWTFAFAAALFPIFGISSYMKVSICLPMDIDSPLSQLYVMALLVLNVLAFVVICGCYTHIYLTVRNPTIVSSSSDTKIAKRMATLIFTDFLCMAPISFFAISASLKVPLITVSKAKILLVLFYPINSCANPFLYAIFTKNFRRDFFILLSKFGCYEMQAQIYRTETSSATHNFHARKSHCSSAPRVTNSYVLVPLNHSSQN

SMILES	EC50 [1] [µM]	EC50 [2] [µM]
COc1cc2c(cc1OC(C)C)-n1c(-c3cccc(Cl)c3)nc(C(=O)N3CCOCC3(C)C)c1CC2 [Compound 44]	0.1 to 1	> 5
COc1cc2c(cc1OC(C)C)-n1c(C3=CCCC3)nc(C(=O)N3CCOCC3(C)C)c1CC2 [Compound 49]	0.1 to 1	> 5
[2H]C([2H])([2H])Oc1cc2c(cc1CC(C)C)-n1c(-c3cccs3)nc(C(=O)N(C)C(C)(C)C)c1CC2 [Compound 53, 8-Isobutyl-7-methoxy-d3-1-thiophen-2-yl-4,5-dihydro-imidazo[1,5-a]quinoline-3-carboxylic acid tert-butyl-methyl-amide]	< 0.1	1 to 5
COc1cc2c(cc1OC(C)C)-n1c(-c3ccc(F)s3)nc(C(=O)N3CCOCC3(C)C)c1CC2 [Compound 59]	< 0.1	0.1 to 1
COc1cc2c(cc1OC(C)C)-n1c(-c3cc(C)cs3)nc(C(=O)N3CCOCC3(C)C)c1CC2 [Compound 70]	< 0.1	1 to 5
COc1cc2c(cc1OC(C)C)-n1c(-c3ccc(C)s3)nc(C(=O)N3CCOCC3(C)C)c1CC2 [Compound 71]	< 0.1	0.1 to 1
COc1cc2c(cc1OC(C)C)-n1c(-c3ccc(Cl)s3)nc(C(=O)N3CCOCC3(C)C)c1CC2 [Compound 72]	< 0.1	< 0.1
COc1cc2c(cc1-c1cnn(C)c1)-n1c(-c3cccs3)nc(C(=O)N3CCOCC3(C)C)c1CC2 [Compound 75, (3,3-Dimethyl-morpholin-4-yl)-[7-methoxy-8-(1-methyl-1H-pyrazol-4-yl)-1-thiophen-2-yl-4,5-dihydro-imidazo[1,5-a]quinolin-3-yl]-methanone]	< 0.1	0.1 to 1
COc1cc2c(cc1-c1c[nH]nc1C)-n1c(-c3ccsc3)nc(C(=O)N(C)C(C)(C)C)c1CC2 [Compound 76, 7-Methoxy-8-(3-methyl-1H-pyrazol-4-yl)-1-thiophen-3-yl-4,5-dihydro-imidazo+1,5-a+quinoline-3-carboxylic acid tert-butyl-methyl-amide]	< 0.1	0.1 to 1
COc1cc2c(cc1CC(C)C)-n1c(-c3ccc(C)s3)nc(C(=O)N(C)C(C)(C)C)c1CC2 [Compound 96, 8-Isobutyl-7-methoxy-1-(5-methyl-thiophen-2-yl)-4,5-dihydro-imidazo[1,5-a]quinoline-3-carboxylic acid tert-butyl-methyl-amide]	0.1 to 1	1 to 5
COc1cc2c(cc1CC(C)C)-n1c(-c3ccc(Cl)s3)nc(C(=O)N(C)C(C)(C)C)c1CC2 [Compound 97, 1-(5-Chloro-thiophen-2-yl)-8-isobutyl-7-methoxy-4,5-dihydro-imidazo[1,5-a]quinoline-3-carboxylic acid tert-butyl-methyl-amide]	< 0.1	0.1 to 1
COc1cc2c(cc1OC(C)C)-n1c(-c3ccc(F)c(F)c3)nc(C(=O)N3CCOCC3(C)C)c1CC2 [Compound 102]	0.1 to 1	1 to 5
COc1cc2c(cc1OC(C)C)-n1c(-c3cc(Cl)cc(Cl)c3)nc(C(=O)N3CCOCC3(C)C)c1CC2 [Compound 110]	< 0.1	0.1 to 1
COc1cc2c(cc1OC(C)C)-n1c(-c3cc(Cl)cs3)nc(C(=O)N3CCOCC3(C)C)c1CC2 [Compound 114]	< 0.1	0.1 to 1
COc1cc2c(cc1OC(C)C)-n1c(-c3cccc(Cl)c3F)nc(C(=O)N3CCOCC3(C)C)c1CC2 [Compound 134]	0.1 to 1	0.1 to 1
COc1cc2c(cc1OC(C)C)-n1c(-c3ccsc3)nc(C(=O)N(C)C(C)(C)C)c1CO2 [Compound 135, 8-Isopropoxy-7-methoxy-1-thiophen-3-yl-4H-5-oxa-2,9b-diaza-cyclopenta[a]naphthalene-3-carboxylic acid tert-butyl-methyl-amide]	< 0.1	> 5
COc1cc2c(cc1OC(C)C)-n1c(-c3cccs3)nc(C(=O)N3CCOCC3(C)C)c1CO2 [Compound 139, (3,3-Dimethyl-morpholin-4-yl)-(8-isopropoxy-7-methoxy-1-thiophen-2-yl-4H-5-oxa-2,9b-diaza-cyclopenta[a]naphthalen-3-yl)-methanone]	< 0.1	0.1 to 1
COc1cc2c(cc1-c1ccn(C)c1)-n1c(-c3cccs3)nc(C(=O)N3CCOCC3(C)C)c1CC2 [Compound 143, (3,3-Dimethyl-morpholin-4-yl)-[7-methoxy-8-(1-methyl-1H-pyrrol-3-yl)-1-thiophen-2-yl-4,5-dihydro-imidazo[1,5-a]quinolin-3-yl]-methanone]	< 0.1	> 5
COc1cc2c(cc1-c1ccn(C)n1)-n1c(-c3cccc(Cl)c3)nc(C(=O)N3CCOCC3(C)C)c1CC2 [Compound 148, (1-(3-chlorophenyl)-7-methoxy-8-(1-methyl-1H-pyrazol-3-yl)-4,5-dihydroimidazo[1,5-a]quinolin-3-yl)(3,3-dimethylmorpholino)methanone]	0.1 to 1	1 to 5
[2H]C([2H])([2H])n1cc(-c2cc3c(cc2OC)CCc2c(C(=O)N4CCOCC4(C)C)nc(-c4cccn4C)n2-3)cn1 [Compound 149, (3,3-dimethylmorpholino)(7-methoxy-8-(1-methyl-1H pyrazol-4-yl)-1-(1-methyl-1H-pyrrol-2-yl)-4,5-dihydroimidazo[1,5-a]quinolin-3-yl)methanone]	< 0.1	1 to 5
